Results on 18 molecules are retold here after patent US20250214991A1 (Oncopia Therapeutics, Inc. d/b/a/ SK Life Science Labs, priority 2022, published 2025).

In test [1] the target is T1, IKZF2 (Homo sapiens (Human), UniProt Q96SW2+Q9UKS7). As to the kind of experiment: In vitro IKZF2 FACS Assay in Jurkat cells. Conditions: 24 hrs; for DC50: half maximal degradation concentration; for Dmax: maximal degradation percentage. The format is cell-based. On the procedure:
In vitro IKZF2 FACS Assay
DC50, A: <1 nM; B: 1-10 nM; C: 10-100 nM; D: 100-1000 nM; E: >1000 nM. Dmax, A: >80%; B: 60-80%; C: 40-60%; D: 20-40%; E: <20%.

Test [2] deals with CRBN/DDB1 (Homo sapiens (Human), UniProt Q96SW2). As to the kind of experiment: IC50 measurements for binding to CRBN/DDB1 (HTRF). Conditions: His tagged CRBN+DDB, Cy5-labeled Thalidomide probe, one hour. The method, boiled down:
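Serially diluted compounds compete with a Cy5-labeled thalidomide tracer (60 nM) for His-tagged CRBN-DDB1 (2 nM), detected via anti-6His Tb cryptate (0.4 nM); buffer HEPES pH 7.5 with TCEP, Brij-35, NaCl, BSA. One-hour room-temperature incubation, HTRF signal read, IC50 by four-parameter curve.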
(In general: In TR-FRET formats the signal depends on donor and acceptor labels being close together.)

Test [3] concerns the target IKZF1 (Homo sapiens (Human), UniProt Q13422+Q96SW2). As to the kind of experiment: In vitro IKZF1 HiBit Assay (HEK293T Flp-in-HiBiT-IKZF1 stable cell line). The settings on record: HEK293T Flp-in-HiBiT-IKZF1 stable cell line, 6 hrs incubation; for DC50: read-out: IKZF1 HiBit DC50; for Dmax: HEK-293T, read-out: IKZF1 HiBit Dmax (%). The format is cell-based. The method, boiled down:
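Degradation was measured as loss of luminescence from the HiBiT-IKZF1 tag after 6 h compound treatment, with 0.1% final DMSO, in stable HEK293T Flp-in cells. Values were normalized to DMSO, giving the 50% degradation concentration and the maximal degradation range.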
A general note: With HiBiT, luminescence reflects the tagged protein that the partner subunit can reach.

Test [4] has as its target T1, IKZF2. As to the kind of experiment: In vitro IKZF2 HiBit Assay (HEK293T Flp-in-HiBiT cells). The format is cell-based. Conditions: HEK293T Flp-in-HiBiT cells, 6 hrs incubation; for DC50: read-out: IKZF2 HiBit DC50; for Dmax: HEK-293T, read-out: IKZF2 HiBit Dmax (%). Put shortly: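 Remaining tagged Helios was read as lytic HiBiT/LgBiT luminescence normalized to DMSO, yielding binned DC50 and Dmax values. Treatment ran 6 h, with compounds at 11 three-fold doses diluted from 1 mM and 0.1% final DMSO. The cells were HEK293T Flp-in with CRISPR knock-in of HiBiT at the IKZF2 N-terminus.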

Sequence of CRBN/DDB1 (Q96SW2 whole entry, species assumed): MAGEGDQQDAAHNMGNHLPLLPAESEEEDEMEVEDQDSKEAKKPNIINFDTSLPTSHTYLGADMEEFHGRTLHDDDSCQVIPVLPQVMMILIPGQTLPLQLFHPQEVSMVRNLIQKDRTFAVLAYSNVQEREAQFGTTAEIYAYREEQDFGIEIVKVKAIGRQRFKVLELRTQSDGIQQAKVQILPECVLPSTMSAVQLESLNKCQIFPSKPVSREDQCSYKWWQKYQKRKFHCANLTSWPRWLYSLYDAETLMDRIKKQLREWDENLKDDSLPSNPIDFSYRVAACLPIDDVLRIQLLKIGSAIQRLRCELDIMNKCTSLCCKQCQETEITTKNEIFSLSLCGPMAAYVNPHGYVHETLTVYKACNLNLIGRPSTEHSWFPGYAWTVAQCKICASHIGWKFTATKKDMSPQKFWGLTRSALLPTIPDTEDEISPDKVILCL
Sequence of CRBN/DDB1 (Q16531 whole entry partner, species assumed): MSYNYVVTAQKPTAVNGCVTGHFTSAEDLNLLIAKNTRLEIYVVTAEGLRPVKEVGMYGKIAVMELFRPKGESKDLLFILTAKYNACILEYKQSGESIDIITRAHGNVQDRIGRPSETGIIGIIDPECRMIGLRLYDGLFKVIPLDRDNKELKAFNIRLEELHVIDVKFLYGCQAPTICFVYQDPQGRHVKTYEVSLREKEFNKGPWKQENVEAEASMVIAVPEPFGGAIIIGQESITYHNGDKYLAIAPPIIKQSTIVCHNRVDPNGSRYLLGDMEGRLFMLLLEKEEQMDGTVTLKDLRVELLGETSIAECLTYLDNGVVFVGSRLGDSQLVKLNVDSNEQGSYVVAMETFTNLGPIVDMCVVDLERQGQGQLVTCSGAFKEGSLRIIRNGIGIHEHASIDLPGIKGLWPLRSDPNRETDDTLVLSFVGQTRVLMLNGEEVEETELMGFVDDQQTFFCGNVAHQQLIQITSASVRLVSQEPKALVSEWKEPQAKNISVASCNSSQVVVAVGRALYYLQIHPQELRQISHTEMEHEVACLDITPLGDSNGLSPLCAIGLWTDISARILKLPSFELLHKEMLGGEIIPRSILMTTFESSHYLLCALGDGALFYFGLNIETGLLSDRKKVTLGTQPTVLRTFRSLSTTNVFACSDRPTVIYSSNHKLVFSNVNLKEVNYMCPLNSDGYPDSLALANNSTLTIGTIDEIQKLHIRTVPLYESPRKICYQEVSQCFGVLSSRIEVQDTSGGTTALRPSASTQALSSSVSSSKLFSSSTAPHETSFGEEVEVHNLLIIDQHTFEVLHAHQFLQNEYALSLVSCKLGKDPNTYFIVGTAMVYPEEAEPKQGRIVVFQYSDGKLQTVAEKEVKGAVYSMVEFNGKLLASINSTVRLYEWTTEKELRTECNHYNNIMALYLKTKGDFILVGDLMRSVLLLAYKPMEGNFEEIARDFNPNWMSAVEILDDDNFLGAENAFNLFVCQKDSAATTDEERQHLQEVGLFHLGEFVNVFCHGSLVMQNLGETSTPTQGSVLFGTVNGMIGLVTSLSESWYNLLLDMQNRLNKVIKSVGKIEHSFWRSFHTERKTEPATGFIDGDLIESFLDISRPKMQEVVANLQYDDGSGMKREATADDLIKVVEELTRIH
Sequence of IKZF1 (Q13422 whole entry): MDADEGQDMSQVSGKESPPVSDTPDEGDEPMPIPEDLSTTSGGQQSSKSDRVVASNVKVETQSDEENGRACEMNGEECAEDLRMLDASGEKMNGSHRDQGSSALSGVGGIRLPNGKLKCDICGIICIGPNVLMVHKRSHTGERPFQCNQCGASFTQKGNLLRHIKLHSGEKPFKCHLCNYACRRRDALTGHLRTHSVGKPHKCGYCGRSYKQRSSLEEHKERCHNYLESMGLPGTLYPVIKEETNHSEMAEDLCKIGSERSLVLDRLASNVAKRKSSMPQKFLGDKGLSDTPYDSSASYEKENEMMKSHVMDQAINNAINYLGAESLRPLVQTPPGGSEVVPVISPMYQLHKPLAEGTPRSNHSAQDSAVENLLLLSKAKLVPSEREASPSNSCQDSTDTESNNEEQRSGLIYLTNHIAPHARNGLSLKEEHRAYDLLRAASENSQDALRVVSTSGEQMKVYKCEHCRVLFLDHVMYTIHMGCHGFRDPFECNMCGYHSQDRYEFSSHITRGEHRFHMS
Sequence of IKZF1 (Q96SW2 whole entry): as the sequence (Q96SW2 whole entry, species assumed) above
Sequence of IKZF1 (Q16531 2-1140 partner): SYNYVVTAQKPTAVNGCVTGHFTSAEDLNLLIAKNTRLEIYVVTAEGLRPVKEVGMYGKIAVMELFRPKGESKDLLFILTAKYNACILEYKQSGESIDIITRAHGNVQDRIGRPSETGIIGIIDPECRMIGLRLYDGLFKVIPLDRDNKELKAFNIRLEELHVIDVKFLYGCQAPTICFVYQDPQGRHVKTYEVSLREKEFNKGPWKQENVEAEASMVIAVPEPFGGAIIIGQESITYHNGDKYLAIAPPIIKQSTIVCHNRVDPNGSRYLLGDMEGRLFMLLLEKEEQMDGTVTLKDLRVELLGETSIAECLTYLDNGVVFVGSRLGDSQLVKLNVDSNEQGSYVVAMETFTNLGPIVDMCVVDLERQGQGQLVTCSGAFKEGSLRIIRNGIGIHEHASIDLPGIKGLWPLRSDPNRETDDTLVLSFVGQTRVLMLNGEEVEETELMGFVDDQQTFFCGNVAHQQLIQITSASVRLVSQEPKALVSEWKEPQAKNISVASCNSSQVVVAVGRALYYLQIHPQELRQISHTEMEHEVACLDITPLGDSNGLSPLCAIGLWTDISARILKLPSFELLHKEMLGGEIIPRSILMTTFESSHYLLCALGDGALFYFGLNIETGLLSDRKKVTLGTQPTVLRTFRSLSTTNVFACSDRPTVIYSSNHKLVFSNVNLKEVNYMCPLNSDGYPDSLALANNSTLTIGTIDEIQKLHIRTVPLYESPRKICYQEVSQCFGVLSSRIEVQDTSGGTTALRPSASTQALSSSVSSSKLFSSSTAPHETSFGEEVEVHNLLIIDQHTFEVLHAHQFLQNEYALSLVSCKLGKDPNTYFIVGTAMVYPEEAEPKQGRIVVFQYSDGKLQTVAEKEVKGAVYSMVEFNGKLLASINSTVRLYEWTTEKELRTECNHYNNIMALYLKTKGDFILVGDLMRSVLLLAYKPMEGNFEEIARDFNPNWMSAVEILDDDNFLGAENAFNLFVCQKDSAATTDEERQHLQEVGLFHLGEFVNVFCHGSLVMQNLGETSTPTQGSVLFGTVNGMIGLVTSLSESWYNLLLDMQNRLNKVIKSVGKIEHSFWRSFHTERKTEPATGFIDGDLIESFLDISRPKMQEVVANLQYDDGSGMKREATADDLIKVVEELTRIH
T1 sequence (Q9UKS7 whole entry): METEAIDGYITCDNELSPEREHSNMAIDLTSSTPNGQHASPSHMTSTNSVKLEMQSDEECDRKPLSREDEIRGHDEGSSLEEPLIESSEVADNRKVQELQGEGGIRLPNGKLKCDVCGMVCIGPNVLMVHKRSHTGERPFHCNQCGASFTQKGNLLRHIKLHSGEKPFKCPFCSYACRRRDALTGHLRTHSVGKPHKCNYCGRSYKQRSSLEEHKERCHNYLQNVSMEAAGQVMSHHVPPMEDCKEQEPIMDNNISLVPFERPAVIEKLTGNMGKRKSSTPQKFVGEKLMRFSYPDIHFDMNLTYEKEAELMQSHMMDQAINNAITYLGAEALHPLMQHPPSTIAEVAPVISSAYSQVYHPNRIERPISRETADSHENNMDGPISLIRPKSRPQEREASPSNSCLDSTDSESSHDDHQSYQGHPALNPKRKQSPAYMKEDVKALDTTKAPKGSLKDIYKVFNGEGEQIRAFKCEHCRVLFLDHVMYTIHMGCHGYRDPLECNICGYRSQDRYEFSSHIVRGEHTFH
T1 sequence (Q96SW2 whole entry): as the sequence (Q96SW2 whole entry, species assumed) above
T1 sequence (Q16531 2-1140 partner): as the sequence (Q16531 2-1140 partner) above

With `CC(NCc1cc(-c2ccc3c(c2)CN(C2CCC(=O)NC2=O)C3=O)n2cncc2c1)c1cccc(Cl)c1` (stereo not drawn) [Example 20, 3-(5-(7-(((1-(3-chlorophenyl)ethyl)amino)methyl)imidazo[1,5-a]pyridin-5-yl)-1-oxoisoindolin-2-yl) piperidine-2,6-dione], in test [1], the DC50 lay in the range of 10 to 100 nM and the Dmax lay in the range of 20 to 40%. Besides, the IC50 – broadly, the point on the concentration scale where inhibition reaches its midpoint – in test [2] fell in the range of 1000 to 5000 nM.

`O=C1CCC(N2Cc3cc(-c4cc(CN5CC6CC6C5)cc5cncn45)ccc3C2=O)C(=O)N1` (stereo not drawn) [Example 7, 3-(5-(7-((3-azabicyclo[3.1.0]hexan-3-yl)methyl)imidazo[1,5-a]pyridin-5-yl)-1-oxoisoindolin-2-yl) piperidine-2,6-dione]: in test [1], the DC50 fell in the range of 10 to 100 nM and the Dmax is 40 to 60%. This molecule yielded an IC50 in test [2] of 500 to 1000 nM.

In test [1], `COc1c(-c2cc(CN3CCCC3)cc3cncn23)ccc2c1CN(C1CCC(=O)NC1=O)C2=O` (stereo not drawn) [Example 31, 3-(4-methoxy-1-oxo-5-(7-(pyrrolidin-1-ylmethyl)imidazo[1,5-a]pyridin-5-yl)isoindolin-2-yl) piperidine-2,6-dione] had a DC50 above 1000 nM and a Dmax below 20%. In addition, the IC50 in test [2] lay within 100 to 500 nM.

In test [1], `CC(C)(NCc1cc(-c2ccc3c(c2)CN(C2CCC(=O)NC2=O)C3=O)n2cncc2c1)c1ccccc1` (stereo not drawn) [Example 18, 3-(1-oxo-5-(7-(((2-phenylpropan-2-yl)amino)methyl)imidazo[1,5-a]pyridin-5-yl)isoindolin-2-yl) piperidine-2,6-dione] had a DC50 of 100 to 1000 nM and a Dmax of 40 to 60%. Also, the IC50 in test [2] was 500 to 1000 nM.

In test [1], `Cn1cnc2c(-c3ccc4c(c3)CN(C3CCC(=O)NC3=O)C4=O)cc(CNCCc3ccccc3Cl)cc21` (stereo not drawn) [Example 51, 3-(5-(6-(((2-chlorophenethyl)amino)methyl)-1-methyl-1H-benzo[d]imidazol-4-yl)-1-oxoisoindolin-2-yl) piperidine-2,6-dione] displayed a DC50 above 1000 nM and a Dmax of 20 to 40%. Besides, the IC50 in test [2] was in the range of 100 to 500 nM.

Take `O=C1CCC(N2Cc3cc(-c4cc(CNCc5cccc6ccccc56)cc5cncn45)ccc3C2=O)C(=O)N1` (stereo not drawn) [Example 24, 3-(5-(7-(((naphthalen-1-ylmethyl)amino)methyl)imidazo[1,5-a]pyridin-5-yl)-1-oxoisoindolin-2-yl) piperidine-2,6-dione]: in test [1], the DC50 was 10 to 100 nM and the Dmax is 20 to 40%. In test [2], this molecule gave a half-maximal inhibitory concentration (IC50) of 1000 to 5000 nM.

For `O=C1CCC(N2Cc3cc(-c4cc(CN5CC6COCC(C6)C5)cc5cncn45)ccc3C2=O)C(=O)N1` (stereo not drawn) [Example 11], in test [1], the DC50 was in the range of 100 to 1000 nM and the Dmax lay in the range of 40 to 60%. The IC50 in test [2] lay in the range of 500 to 1000 nM.

Take `C[C@@H](NCc1cc(-c2ccc3c(c2)CN(C2CCC(=O)NC2=O)C3=O)n2cncc2c1)c1ccccc1` (single isomer, unassigned) [Example 16, 3-(1-oxo-5-(7-((((R*)-1-phenylethyl)amino)methyl)imidazo[1,5-a]pyridin-5-yl)isoindolin-2-yl) piperidine-2,6-dione]: in test [1], the DC50 is 10 to 100 nM and the Dmax was in the range of 40 to 60%. For the same molecule, the IC50 in test [2] was in the range of 500 to 1000 nM.

In test [1], `Cc1ccc(CCNCc2cc(-c3ccc4c(c3)CN(C3CCC(=O)NC3=O)C4=O)n3cncc3c2)cc1Cl` (stereo not drawn) [Example 22] displayed a DC50 above 1000 nM and a Dmax of 20 to 40%. Also, the half-maximal inhibitory concentration (IC50) in test [2] was 1000 to 5000 nM.

In test [1], `Cn1ccc2cccc(CNCc3cc(-c4ccc5c(c4)CN(C4CCC(=O)NC4=O)C5=O)n4cncc4c3)c21` (stereo not drawn) [Example 25] yielded a DC50 above 1000 nM and a Dmax below 20%. In addition, the IC50 in test [2] lay within 100 to 500 nM.

In test [1], `CCN(CC)Cc1cc(-c2ccc3c(c2)CN(C2CCC(=O)NC2=O)C3=O)n2cncc2c1` (stereo not drawn) [Example 12, 3-(5-(7-((diethylamino)methyl)imidazo[1,5-a]pyridin-5-yl)-1-oxoisoindolin-2-yl) piperidine-2,6-dione] registered a DC50 of 100 to 1000 nM and a Dmax of 40 to 60%. The same molecule showed an IC50 in test [2] of 100 to 500 nM.

Take `C[C@H](c1ccccc1)N(C)Cc1cc(-c2ccc3c(c2)CN(C2CCC(=O)NC2=O)C3=O)n2cncc2c1` (single isomer, unassigned) [Example 17, 3-(5-(7-((methyl ((R*)-1-phenylethyl)amino)methyl)imidazo[1,5-a]pyridin-5-yl)-1-oxoisoindolin-2-yl) piperidine-2,6-dione]: in test [1], the DC50 lay within 10 to 100 nM and the Dmax was 20 to 40%. Moreover, the IC50 in test [2] was in the range of 1000 to 5000 nM.

On to `C[C@H](NCc1cc(-c2ccc3c(c2)CN(C2CCC(=O)NC2=O)C3=O)n2cncc2c1)c1ccccc1` (single isomer, unassigned) [Example 14, 3-(1-oxo-5-(7-((((S*)-1-phenylethyl)amino)methyl)imidazo[1,5-a]pyridin-5-yl)isoindolin-2-yl) piperidine-2,6-dione], for which, in test [1], the DC50 is 10 to 100 nM and the Dmax was in the range of 40 to 60%. In test [2], this molecule registered an IC50 of 100 to 500 nM.

In test [1], `O=C1CCC(N2Cc3cc(-c4cc(CN5CCC5)cc5cncn45)ccc3C2=O)C(=O)N1` (stereo not drawn) [Example 2, 3-(5-(7-(azetidin-1-ylmethyl)imidazo[1,5-a]pyridin-5-yl)-1-oxoisoindolin-2-yl) piperidine-2,6-dione] gave a DC50 of 100 to 1000 nM and a Dmax of 40 to 60%. In test [2], this molecule returned an IC50 of 100 to 500 nM.

For the molecule `O=C1CCC(N2Cc3c(ccc(-c4cc(CN5CCCC5)cc5cncn45)c3F)C2=O)C(=O)N1` (stereo not drawn) [Example 27, 3-(4-fluoro-1-oxo-5-(7-(pyrrolidin-1-ylmethyl)imidazo[1,5-a]pyridin-5-yl)isoindolin-2-yl) piperidine-2,6-dione], in test [1], the DC50 lay in the range of 10 to 100 nM and the Dmax was in the range of 40 to 60%. The IC50 in test [2] was in the range of 500 to 1000 nM.

`O=C1CCC(N2Cc3cc(-c4cc(CN5CCCCC56CC6)c5ccn(C6COC6)c5n4)ccc3C2=O)C(=O)N1` (stereo not drawn) [Example 264, 3-(5-(4-((4-azaspiro[2.5]octan-4-yl)methyl)-1-(oxetan-3-yl)-1H-pyrrolo[2,3-b]pyridin-6-yl)-1-oxoisoindolin-2-yl) piperidine-2,6-dione]: the DC50 was above 10000 nM in test [3], 10 to 100 nM in test [1] and 1 to 10 nM in test [4]. Also, the Dmax in test [3] is below 20%; in test [1] it was 40 to 60%; in test [4] it was 60 to 80%.

For the molecule `CC(C)Nc1n[nH]c2c(CN3CCC(F)CC3)cc(-c3ccc4c(c3F)CN(C3CCC(=O)NC3=O)C4=O)nc12` (stereo not drawn) [Example 282, 3-(4-fluoro-5-(7-((4-fluoropiperidin-1-yl)methyl)-3-(isopropylamino)-1H-pyrazolo[4,3-b]pyridin-5-yl)-1-oxoisoindolin-2-yl) piperidine-2,6-dione], the DC50 fell in the range of 1000 to 10000 nM in test [3], 10 to 100 nM in test [1] and 1 to 10 nM in test [4]. Also, the Dmax was 20 to 40% in test [3], above 80% in test [1] and above 80% in test [4].

Take `CC(C)Nc1n[nH]c2c(CN3CC4(CCOCC4)C3)cc(-c3ccc4c(c3F)CN(C3CCC(=O)NC3=O)C4=O)nc12` (stereo not drawn) [Example 289, 3-(5-(7-((7-oxa-2-azaspiro[3.5]nonan-2-yl)methyl)-3-(isopropylamino)-1H-pyrazolo[4,3-b]pyridin-5-yl)-4-fluoro-1-oxoisoindolin-2-yl) piperidine-2,6-dione]: the DC50 lay in the range of 10 to 100 nM in test [3], 1 to 10 nM in test [1] and 1 to 10 nM in test [4]. Further, the Dmax in test [3] was 40 to 60%; in test [1], above 80%; in test [4], above 80%.
